We go through eleven compounds from patent US4454123A, “O-xylopyranoside series compounds and methods of use” (Seikagaku Kogyo Co. Ltd., priority 1980, dated 1984).

Like-named read-outs stand apart in the source and are kept apart here.

The subject of series [1] is platelet agglutination caused by thrombin. Nature of the series: Inhibitory effect against platelet agglutinating agent thrombin (Test Example 8). Further details: key: The degree of agglutination was expressed by using marks +, ++, +++, etc.; The degree of agglutination was expressed by using marks +, ++, +++, etc.; The degree of agglutination was expressed by using marks +, ++, +++, etc. The series is classed as cell-based, human. The settings on record: specimen 2 mM, dissolved in 50% ethanol. The protocol: (§1) Inhibitory activities of each compound of this invention against platelet agglutinating agents (ADP, collagen, thrombin, ristocetin and epinephrine)were investigated according to the method using a microscope.
(§2) PRP was prepared by mixing a 3.8% aqueous sodium citrate and a human vein blood at a ratio of 1:9; centrifuging the mixture at 700 r.p.m. for 10 minutes; and then collecting the supernatant.
(§3) The residue remaining after collection of the PRP mentioned above was subjected further to centrifugation at 3000 r.p.m. for 10 minutes and then collected the supernatant to obtain PPP.
(§4) Following solutions were employed for the test.
c. thrombin (0.25 U/ml solution)
(§5) In each well of a Multidish (Nunc Multidish having 24 wells) was placed 0.2 ml of PRP (containing 3.0×10^5 platelet cells/cmm).
(§6) Thereto was added 50 μl of a specimen solution containing 10 mM of the compound according to this invention, and the mixture was stirred at 37° C. for 2 minutes. To the mixture was added 10 μl of each solution of the platelet agglutinating agent mentioned above, and the result was observed by using a microscope 1 minute and then 5 minutes thereafter.
(§7) The degree of agglutination was expressed by using marks +, ++, +++, etc., according to the method by Fukutake et al [Katsuhiro Fukutake, Iwao Yamaguchi: Blood and Blood Vessel, Volume 6, No. 7, pp. 55-60 (1975)].

The subject of series [2] is platelet agglutination caused by ADP. Nature of the series: Inhibitory effect against platelet agglutinating agent ADP (Test Example 8). In kind it is cell-based, human. More on the design: key: The degree of agglutination was expressed by using marks +, ++, +++, etc.; The degree of agglutination was expressed by using marks +, ++, +++, etc.; The degree of agglutination was expressed by using marks +, ++, +++, etc. To be noted: specimen 2 mM, dissolved in 50% ethanol. Here is the method: as §1, §2, §3, §4
a. ADP (2 μM/ml solution)
as §5, §6, §7

The subject of series [3] is platelet agglutination caused by collagen. The series can be described thus: Inhibitory effect against platelet agglutinating agent collagen (Test Example 8). The series is classed as cell-based, human. Further details: key: The degree of agglutination was expressed by using marks +, ++, +++, etc.; The degree of agglutination was expressed by using marks +, ++, +++, etc.; The degree of agglutination was expressed by using marks +, ++, +++, etc. To be noted: specimen 2 mM, dissolved in 50% ethanol. Here is the method:
as §1, §2, §3, §4
b. collagen (0.25 μM/ml solution)
as §5, §6, §7

The nature of series [4]: Acute toxicity (LD50) by oral or intraperitoneal administration to ddY mice (Test Example 6). The series is classed as in vivo. To be noted: mouse, in vivo, 7 days. The protocol: (§8) The acute toxicity of the compound according to this invention was determined by forced oral or intraperitoneal administration thereof to ddY mice.
(§9) To prepare each specimen to be administered, a predetermined amount of each compound shown in Table 5 was dissolved in a physiological saline or suspended in a 0.2% solution of carboxymethylcellulose in a physiological saline. Each specimen was administered orally to a ddY mouse via its stomach tube or injected intraperitoneally.

For the next series, the system named is Sarcoma-180. Nature of the series: Activity against a transplantable cancer, Sarcoma-180 (Test Example 7). In kind it is in vivo, ICR-JCL mice. To be noted: 100 mg/kg ip once a day for 10 days; for inhibition in vivo at 100 mg/kg: Mus musculus, Sarcoma-180, ip, 240 h, read-out: I.R. (inhibition ratio, Sarcoma-180 tumor weight). The protocol: Sarcoma-180 cells (1×10^6 cells) were inoculated subcutaneously into the back skin of each of ICR-JCL mice.
Chemotherapy was given intraperitoneally 24 hrs. after inoculation and performed once a day for 10 days. Each specimen to be administered was prepared by dissolving or suspending 30 mg of each compound according to this invention in 1 ml of a physiological saline or in 1 ml of a 0.2% solution of carboxymethylcellulose in a physiological saline, respectively.
All the solutions and the suspensions thus prepared were injected at a volume of 0.1 ml as a single dose (100 mg/Kg).
The inhibition ratio (%) was calculated according to the following equation: […]
wherein T represents the mean weight of the tumor Sarcoma-180 in a tested group of mice; and C represents the mean weight of the tumor in a control group of mice.

The test system of series [5] is platelet agglutination caused by ristocetin. The series can be described thus: Inhibitory effect against platelet agglutinating agent ristocetin (Test Example 8). The series is classed as cell-based, human. To be noted: specimen 2 mM, dissolved in 50% ethanol. More on the design: key: The degree of agglutination was expressed by using marks +, ++, +++, etc.; The degree of agglutination was expressed by using marks +, ++, +++, etc.; The degree of agglutination was expressed by using marks +, ++, +++, etc. The protocol:
as §1, §2, §3, §4
d. ristocetin (1.5 mg/ml solution)
as §5, §6, §7

In a further series the test system is ddY mice. Nature of the series: Acute toxicity (LD50) by oral or intraperitoneal administration to ddY mice (Test Example 6). In kind it is in vivo. The settings on record: 7 days, 10080 min; for LD50 (ip): intraperitoneal. Here is the method: as §8, §9
For series [6], the system named is platelet agglutination caused by epinephrine. The series can be described thus: Inhibitory effect against platelet agglutinating agent epinephrine (Test Example 8). In kind it is cell-based, human. More on the design: key: The degree of agglutination was expressed by using marks +, ++, +++, etc.; The degree of agglutination was expressed by using marks +, ++, +++, etc.; The degree of agglutination was expressed by using marks +, ++, +++, etc. The settings on record: specimen 2 mM, dissolved in 50% ethanol. Here is the method: as §1, §2, §3, §4
e. epinephrine (2 μg/ml solution)
as §5, §6, §7

The mark [7] stands for this setting: ip, intraperitoneal, read-out: LD50 (ip).

`CCCCCCCCCCCCCCCCCCCC[C@@H]1OC[C@@H](O)[C@H](O)[C@H]1O` [C-n-Eicosyl-β-D-xylopyranoside]: the “State of agglutination, 5 min.” value in series [1], in series [2], in series [3] and in series [5] was “+” throughout. Moreover, the LD50 (as a rule, the dose at which mortality reaches 50%) at 168 h in series [4] (setting [7]) came out at 430 mg/kg; in series [4] (po, read-out: LD50 (po)), 2620 mg/kg. Further, the inhibition in vivo at 100 mg/kg in the series with Sarcoma-180 turned out to be 44.3%.

Consider `CCCCCCCCCCCCCCCCCCCCS[C@@H]1OC[C@@H](O)[C@H](O)[C@H]1O` [n-Eicosyl 1-thio-β-D-xylopyranoside], for which the “State of agglutination, 5 min.” value in series [1], in series [2], in series [3] and in series [5] was “+” in each case. Also, the LD50 at 168 h was 400 mg/kg in series [4] (setting [7]) and 2300 mg/kg in series [4] (po, read-out: LD50 (po)). Moreover, in the series on Sarcoma-180, the inhibition in vivo at 100 mg/kg was 32.2%.

Turning to `O=C(O)c1ccc(S[C@@H]2OC[C@@H](O)[C@H](O)[C@H]2O)cc1` [Para(sodiumoxycarbonyl)phenyl 1-thio-β-D-xylopyranoside], in the series with ddY mice, the “LD50 (ip)” value came to 2600 mg/kg body weight and the “LD50 (po)” value came to 7000 mg/kg body weight. Moreover, the “I.R. (inhibition ratio, Sarcoma-180 tumor weight)” value in the series on Sarcoma-180 is given as 49.6%.

Regarding `CCCCCCCCCCCC[C@@H]1OC[C@@H](O)[C@H](O)[C@H]1O` [C-n-Lauryl-β-D-xylopyranoside], the “State of agglutination, 5 min.” value in series [1], in series [3] and in series [5] was “+” throughout. Further, the LD50 at 168 h was 620 mg/kg in series [4] (setting [7]) and 2800 mg/kg in series [4] (po, read-out: LD50 (po)). Further, in the series on Sarcoma-180, the inhibition in vivo at 100 mg/kg was 83.4%.

Consider `CCCCCCCCC[C@@H]1OC[C@@H](O)[C@H](O)[C@H]1O` [C-n-Nonyl-β-D-xylopyranoside], for which the “State of agglutination, 5 min.” value in series [1], in series [2], in series [3] and in series [5] was “+” each time. Besides, the LD50 at 168 h came to 920 mg/kg in series [4] (setting [7]) and 3000 mg/kg in series [4] (po, read-out: LD50 (po)). The inhibition in vivo at 100 mg/kg in the series on Sarcoma-180 is 73.1%.

As for `CCCCCCCCCCCCCCCCCC[C@@H]1OC[C@@H](O)[C@H](O)[C@H]1O` [C-n-Stearyl-β-D-xylopyranoside], the “State of agglutination, 5 min.” value in series [1], in series [2], in series [3] and in series [5] was “+” throughout. For the same compound, the LD50 at 168 h in series [4] (setting [7]) was found to be 480 mg/kg; in series [4] (po, read-out: LD50 (po)), 2500 mg/kg. The inhibition in vivo at 100 mg/kg in the series on Sarcoma-180 was 54.6%.

Turning to `CCCCCCCCCCS[C@@H]1OC[C@@H](O)[C@H](O)[C@H]1O` [n-Decyl 1-thio-β-D-xylopyranoside], the “State of agglutination, 5 min.” value in series [1], in series [2], in series [3], in series [6] and in series [5] was “+” each time. The LD50 at 168 h turned out to be 450 mg/kg in series [4] (setting [7]) and 2500 mg/kg in series [4] (po, read-out: LD50 (po)). Moreover, the inhibition in vivo at 100 mg/kg in the series on Sarcoma-180 turned out to be 40%.

For the compound `O=C(O)c1ccc(C[C@@H]2OC[C@@H](O)[C@H](O)[C@H]2O)cc1` [C-para(sodiumoxycarbonyl)benzyl-β-D-xylopyranoside], in the series with ddY mice, the “LD50 (ip)” value is reported as 3000 mg/kg body weight and the “LD50 (po)” value is recorded as 9300 mg/kg body weight. The “I.R. (inhibition ratio, Sarcoma-180 tumor weight)” value in the series on Sarcoma-180 was determined as 53.2%.

For the compound `CCCCCCCCCCCCS[C@@H]1OC[C@@H](O)[C@H](O)[C@H]1O` [n-Lauryl 1-thio-β-D-xylopyranoside], the “State of agglutination, 5 min.” value in series [1], in series [2], in series [3] and in series [5] was “+” in each case. In addition, the median lethal dose (LD50) at 168 h is 407 mg/kg in series [4] (setting [7]) and 2300 mg/kg in series [4] (po, read-out: LD50 (po)). The inhibition in vivo at 100 mg/kg in the series with Sarcoma-180 is 42.3%.

Regarding `O=C(O)c1ccc(O[C@@H]2OC[C@@H](O)[C@H](O)[C@H]2O)cc1` [Para(sodiumoxycarbonyl)phenyl-β-D-xylopyranoside], in the series on ddY mice, the “LD50 (ip)” value turned out to be 2800 mg/kg body weight and the “LD50 (po)” value turned out to be 8200 mg/kg body weight. For the same compound, in the series with Sarcoma-180, the “I.R. (inhibition ratio, Sarcoma-180 tumor weight)” value is recorded as 39.7%.

Turning to `CCCCCCCCCCCCCCCCS[C@@H]1OC[C@@H](O)[C@H](O)[C@H]1O` [n-Cetyl 1-thio-β-D-xylopyranoside], the “State of agglutination, 5 min.” value in series [1], in series [2], in series [3] and in series [5] was “+” throughout. The LD50 at 168 h in series [4] (setting [7]) turned out to be 425 mg/kg; in series [4] (po, read-out: LD50 (po)) it was 2280 mg/kg. The inhibition in vivo at 100 mg/kg in the series on Sarcoma-180 amounted to 34.7%.
